Read-outs that look alike come from different tables or passages of the source.
Assays:
HCT116 = experiment: Cell viability assay (MTT), HCT116; format: cell-based, human; conditions: 1% DMSO
Method: (§1) Table 12: 6-day cell viability assay (MTT) in the presence of 10% Fetal Bovine Serum and 1% DMSO, in HMEC1, HCT116, MDA-MB-231, MCF7 and NIH3T3 cell lines. 3 10^3 to 15 10^3 cells were seeded in 48-well plates in growth medium containing 10% FBS, with or without various concentrations of test compounds. Cell cultures were fed every 3 days with the appropriate media. Cell viability was determined on day 6. Data were analyzed and IC50s were calculated from dose-response curves using GraphPad Prism. Results summarized in the tables are mean±SEM of 1 to 8 independent experiments.
(§2) Table 13: 6-day cell viability assay (MTT) in the presence of 0.5% Fetal Bovine Serum and 1% DMSO, in HCT116 and MDA-MB-231 cell lines. 7.5 10^4 to 15 10^4 cells were seeded in 48-well plates in growth medium containing 10% FBS, with or without various concentrations of test compounds. Cell cultures were fed every 3 days with the appropriate media. Cell viability was determined on day 6. Data were analyzed and IC50s were calculated from dose-response curves using GraphPad Prism. Results summarized in the tables are mean±SEM of 1 to 2 independent experiments.
(§3) Table 14: 3-day cell viability assay (MTT) in the presence of 10% Fetal Bovine Serum and 1% DMSO, in DLD1, HCT116, MDA-MB-231, MCF7 and HeLa cells. 7.5 10^3 to 1.5 10^4 cells were seeded in 48-well plates in growth medium containing 10% FBS, with or without various concentrations of test compounds. Data were analyzed and IC50s were calculated from dose-response curves using GraphPad Prism. Results summarized in the tables are mean±SEM of 1 to 7 independent experiments.
(§4) Table 15: 16-hour cell viability assay (MTT) in the presence of 10% Fetal Bovine Serum and 1% DMSO, in HCT116, MDA-MB-231, NIH3T3, HepG2 and primary hepatocytes. 5 10^4 to 10 10^4 cells were seeded in 48-well plates in growth medium containing 10% FBS, with or without various concentrations of test compounds. Data were analyzed and IC50s were calculated from dose-reponse curves using GraphPad Prism. Results summarized in the tables are mean±SEM of 1 to 2 independent experiments.
(§5) In order to determine a compound's effect on cell viability, microculture tetrazolium assays (MTT) were performed as described by Carmichael et al. (1996) with modifications. Four human tumoral cell lines, namely HCT116 colon adenocarcinoma, H460 lung carcinoma, MCF-7 and MDA-MB-231 breast carcinoma cell lines, DLD1 colorectal adenocarcinoma, HeLa adenocarcinoma, HepG2 hepatocellular carcinoma. 3 immortalized but non tumorigenic cell lines, namely NIH3T3 mouse fibroblasts (American Type Culture Collection) and primary hepatocytes (Biopredic international), cultured according to their recommendations together with Human Microvasculature Endothelial Cell line HMEC1 (National Center for Infectious Diseases). Briefly, cells were seeded in 48-well plates 24 hours before drug addition. Cells were treated with 0 to 200 μM (11 concentrations) of compound solubilized in DMSO, adjusting the final concentration of DMSO to 1% in the well. 16 hours, and three or six days after treatment, 0.5 mg/ml MTT (Sigma) was added to the medium and cells were incubated for 1-5 hours at 37° C. before solubilization of formazan crystals in 100% DMSO. Absorbance was measured using a spectrophotometer at a wavelength of 550 nm. Data was analyzed using the GraphPad Prism software (GraphPad Software, Inc.), and IC50 (dose leading to 50% cell death) was calculated from the dose-response curves.

HMEC1 = experiment: Cell viability assay (MTT), HMEC1; format: cell-based, Human; conditions: 10% FBS; for IC50: MTT, 6-day treatment, 1% DMSO
Method: as §1, §5

MDA-MB-231 = experiment: Cell viability assay (MTT), MDA-MB-231; format: cell-based, human; conditions: 1% DMSO
Method: as §1, §2, §3, §4, §5

NIH 3T3 = experiment: Cell viability assay (MTT), NIH 3T3; format: cell-based, mouse; conditions: 10% FBS, 1% DMSO
Method: as §1, §4, §5

[1] = 10% FBS, 6-day treatment, read-out: IC50 μM, MDA-MB-231
[2] = Homo sapiens, HCT-116, 144 h, 10% FBS, 6-day treatment
[3] = Homo sapiens, MDA-MB-231, 144 h, 10% FBS, 6-day treatment, read-out: IC50 μM, MDA-MB-231
[4] = Mus musculus, NIH3T3, 144 h, 6-day treatment

| Structure (SMILES) | IC50 (HCT116; 10% FBS, 6-day treatment) [µM] | IC50 (HCT116; [2]) [µM] | IC50 (HMEC1; Homo sapiens, HMEC-1, 144 h) [µM] | IC50 (NIH 3T3; [4]) [µM] | other results |
| --- | --- | --- | --- | --- | --- |
| COc1cc2c(cc1O)CC[C@@H]1[C@@H]2CC[C@]2(C)[C@@H](O)CC[C@@H]12 [2ME, 2-Methoxyestradiol, reference compound] | 0.8 |  |  |  | IC50 (HCT116; 0.5% FBS, 6-day treatment): 3.1 µM; IC50 (HCT116; 10% FBS, 16-hours treatment): 128 µM; IC50 (HMEC1): 2.1 µM; IC50 (MDA-MB-231; 0.5% FBS, 6-day treatment, read-out: IC50 (μM), MDA-MB-231): 15.4 µM; IC50 (MDA-MB-231; [1]): 0.3 µM; IC50 (MDA-MB-231; 10% FBS, 16-hours treatment, read-out: IC50 μM, MDA-MB-231): > 100 µM; IC50 (NIH 3T3; 6-day treatment): 2.4 µM; IC50 (NIH 3T3; 16-hours treatment): > 150 µM |
| CN1CCN(Cc2cc(=O)c(OCCCCCOc3ccnc4cc(C(F)(F)F)ccc34)co2)CC1 [EHT 0079, 5-(5-(7-(Trifluoromethyl)quinolin-4-yloxy)pentyloxy)-2-((4-methylpiperazin-1-yl)methyl)-4H-pyran-4-one] |  | 12.5 | 28.6 |  |  |
| O=c1cc(CN2CCOCC2)occ1OCCOCCSc1ccnc2cc(C(F)(F)F)ccc12 [EHT 0371, 5-(2-(2-(7-(Trifluoromethyl)quinolin-4-ylthio)ethoxy)ethoxy)-2-(morpholinomethyl)-4H-pyran-4-one] |  |  | 88.7 |  |  |
| CC(C)(C)C(=O)N1CCN(Cc2cc(=O)c(OCCCCCSc3ccnc4cc(C(F)(F)F)ccc34)co2)CC1 [EHT 0785, 5-(5-(7-(Trifluoromethyl)quinolin-4-ylthio)pentyloxy)-2-((4-(pivaloyl)piperazin-1-yl)methyl)-4H-pyran-4-one] |  |  | < 10 | 11.6 | difference of activity in HMEC1 cells as compared to HCT116 cells (HMEC1; MTT 6 days, compounds most active in HCT116): 5 fold; IC50 (HMEC1): 9.6 µM; IC50 (MDA-MB-231; [1]): 8.2 µM; IC50 (MDA-MB-231; [3]): < 9 µM |
| O=c1cc(CN2CCOCC2)occ1OCCCCCOc1ccnc2ccc(C(F)(F)F)cc12 [EHT 1426, 5-(5-(6-(Trifluoromethyl)quinolin-4-yloxy)pentyloxy)-2-(morpholinomethyl)-4H-pyran-4-one] |  | 18 |  |  |  |
| Cc1cc(OCCCCCOc2coc(COC3CCCCO3)cc2=O)c2cc(F)ccc2n1 (centres unmarked) [EHT 1593, 5-[5-(6-Fluoro-2-methyl-quinolin-4-yloxy)-pentyloxy]-2-(tetrahydro-pyran-2-yloxymethyl)-4H-pyran-4-one] | 2.4 | < 4 | 13.2 | 21.5 |  |
| O=c1cc(CN2CCOCC2)occ1OCCCCCOc1ccnc2cc(C(F)(F)F)ccc12 [EHT 3411, 5-(5-(7-(Trifluoromethyl)quinolin-4-yloxy)pentyloxy)-2-(morpholinomethyl)-4H-pyran-4-one] |  | 14.1 | 62.4 |  |  |
| CC(C)(C)NC(=O)N1CCN(Cc2cc(=O)c(OCCCCCSc3ccnc4cc(C(F)(F)F)ccc34)co2)CC1 [EHT 3664, 4-((5-(5-(7-(Trifluoromethyl)quinolin-4-ylthio)pentyloxy)-4-oxo-4H-pyran-2-yl)methyl)-N-tert-butylpiperazine-1-carboxamide] |  |  | < 10 | 9.8 | IC50 (HMEC1): 10 µM; IC50 (MDA-MB-231; [1]): 6.3 µM; IC50 (MDA-MB-231; [3]): < 9 µM |
| O=c1cc(CN2CCOCC2)occ1OCCCCCOc1ncnc2ccccc12 [EHT 3726, 5-(5-(Quinazolin-4-yloxy)pentyloxy)-2-(morpholinomethyl)-4H-pyran-4-one] |  | ~200 |  |  |  |
| O=c1cc(COC2CCCCO2)occ1OCCCCCOc1ccnc2cc(C(F)(F)F)ccc12 (centres unmarked) [EHT 3788, 2-(Tetrahydro-pyran-2-yloxymethyl)-5-[5-(7-trifluoromethyl-quinolin-4-yloxy)-pentyloxy]-pyran-4-one] | 2.1 | < 4 | < 10 | 8.8 | IC50 (HMEC1): 7.1 µM |
| CNC(=O)N1CCN(Cc2cc(=O)c(OCCCCCSc3ccnc4cc(C(F)(F)F)ccc34)co2)CC1 [EHT 4495, 4-((5-(5-(7-(Trifluoromethyl)quinolin-4-ylthio)pentyloxy)-4-oxo-4H-pyran-2-yl)methyl)-N-methylpiperazine-1-carboxamide] | 2.3 | < 4 |  |  |  |
| O=c1cc(CN2CCOCC2)occ1OCCCCCOc1ccnc2c(C(F)(F)F)cccc12 [EHT 4687, 5-(5-(8-(Trifluoromethyl)quinolin-4-yloxy)pentyloxy)-2-(morpholinomethyl)-4H-pyran-4-one] |  | 5.5 | 39.1 |  |  |
| O=c1cc(CN2CCSCC2)occ1OCCCCCSc1ccnc2cc(C(F)(F)F)ccc12 [EHT 5430, 5-(5-(7-(Trifluoromethyl)quinolin-4-ylthio)pentyloxy)-2-(thiomorpholino-methyl)-4H-pyran-4-one] | 2.1 | < 4 | 20.1 |  |  |
| CCCc1ccc2cccnc2c1OCCCCCOc1coc(COC2CCCCO2)cc1=O (centres unmarked) [EHT 5810, 5-[5-(7-Propyl-quinolin-8-yloxy)-pentyloxy]-2-(tetrahydro-pyran-2-yloxymethyl)-4H-pyran-4-one] |  | 8.4 | 15.1 |  |  |
| CN1CCN(Cc2cc(=O)c(OCCCCCOc3ccnc4c(C(F)(F)F)cccc34)co2)CC1 [EHT 5847, 5-(5-(8-(Trifluoromethyl)quinolin-4-yloxy)pentyloxy)-2-((4-methylpiperazin-1-yl)methyl)-4H-pyran-4-one] |  | 6.1 | 31.6 |  |  |
| O=c1cc(COC2CCCCO2)occ1OCCCCCOc1cccc2ccsc12 (centres unmarked) [EHT 6060, 5-[5-(Benzo[b]thiophen-7-yloxy)-pentyloxy]-2-(tetrahydro-pyran-2-yloxymethyl)-4H-pyran-4-one] | 2 | < 4 | 19.1 |  |  |
| CCOC(=O)c1cnc2cc(C(F)(F)F)ccc2c1OCCCCCOc1coc(CN2CCN(C)CC2)cc1=O [EHT 8791, 4-[5-(6-(4-Methyl-piperazin-1-ylmethyl)-4-oxo-4H-pyran-3-yloxy)-pentyloxy]-7-trifluoromethyl-quinoline-3-carboxylic acid ethyl ester] |  | ~200 | ~200 |  |  |
| O=c1cc(COC2CCCCO2)occ1OCCCCCCCSc1ccnc2cc(C(F)(F)F)ccc12 (centres unmarked) [EHT 8883, 5-(7-(7-(Trifluoromethyl)quinolin-4-ylthio)heptyloxy)-2-((tetrahydro-2H-pyran-2-yloxy)methyl)-4H-pyran-4-one] |  |  | < 10 |  | IC50 (HMEC1): 8 µM |
| CC(C)(C)OC(=O)N1CCN(Cc2cc(=O)c(OCCCCCSc3ccnc4cc(C(F)(F)F)ccc34)co2)CC1 [EHT 9358, tert-Butyl 4-((5-(5-(7-(trifluoromethyl)quinolin-4-ylthio)pentyloxy)-4-oxo-4H-pyran-2-yl)methyl)piperazine-1-carboxylate] |  |  | 18.4 | 7.7 | IC50 (HCT116; Homo sapiens, HCT-116, 144 h, 0.5% FBS, 6-day treatment): 1 µM |
| CC(=O)O[C@H]1C(=O)[C@@]2(C)[C@H]([C@H](OC(=O)c3ccccc3)[C@]3(O)C[C@H](OC(=O)[C@H](O)[C@@H](NC(=O)c4ccccc4)c4ccccc4)C(C)=C1C3(C)C)[C@]1(OC(C)=O)CO[C@@H]1C[C@@H]2O [Taxol, Paclitaxel, reference compound] |  | 0.0055 | 0.0029 | ~0.05 | IC50 (MDA-MB-231; Homo sapiens, MDA-MB-231, 72 h, 10% FBS, 3-day treatment, read-out: IC50, MDA-MB-231 (row labelled Taxol (nM))): 4.25e-06 µM; IC50 (MDA-MB-231; [3]): 0.0036 µM |

From US7514432B2, “Compounds and methods of treating cell proliferative diseases, retinopathies and arthritis” (Exonhit Therapeutics SA, priority 2003, dated 2009)
